Assays:
[1] = target: T1, ALK2 R206H (GST-tagged mutant ALK2) (Homo sapiens, UniProt Q04771, R206H); experiment: ALK binding assay (LANTHASCREEN TR-FRET competitive binding, displacement of Kinase Tracer 178); conditions: ALK2 R206H, LANTHASCREEN TR-FRET competitive binding; read-out: Binding Assay (IC50)
T1 construct: purchased Carna Bioscience or ThermoFisher 09-148 or PV6232
T1 sequence (Q04771 21-509 R206H): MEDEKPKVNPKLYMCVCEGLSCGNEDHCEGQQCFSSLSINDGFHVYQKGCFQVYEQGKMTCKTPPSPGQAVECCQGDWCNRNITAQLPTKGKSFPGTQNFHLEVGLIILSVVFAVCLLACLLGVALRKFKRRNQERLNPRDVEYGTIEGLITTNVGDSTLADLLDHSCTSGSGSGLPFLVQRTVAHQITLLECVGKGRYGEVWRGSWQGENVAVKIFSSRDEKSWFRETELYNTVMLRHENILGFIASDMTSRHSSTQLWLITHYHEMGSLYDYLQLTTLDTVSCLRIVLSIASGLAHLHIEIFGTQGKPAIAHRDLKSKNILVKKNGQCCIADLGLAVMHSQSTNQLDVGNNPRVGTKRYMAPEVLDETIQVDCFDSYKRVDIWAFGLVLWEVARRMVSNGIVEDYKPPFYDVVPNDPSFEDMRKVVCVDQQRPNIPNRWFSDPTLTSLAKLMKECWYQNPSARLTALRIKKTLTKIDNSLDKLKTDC

human ALK2 R206H = target: T2, human ALK2 R206H (Homo sapiens, UniProt Q04771, R206H); experiment: Cell-based ALK2-R206H cell activity assay (Smad1-Ser463/Ser465 phosphorylation by AlphaLISA in HEK293-ALK2-R206H cells); conditions: read-out: Cell Line (Cell Assay IC50)
T2 construct: expressed in transfected cells; host or cells: HEK293 (ATCC CRL1573), lentivirus transduction, blasticidin selection
T2 sequence (Q04771 21-509 R206H): T1 sequence (Q04771 21-509 R206H)
Outline: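 Stable HEK293 cells expressing C-terminally FLAG-tagged human ALK2 R206H (lentiviral, blasticidin-selected) were treated with compounds in 10-point, 3-fold dilutions from 10 μM or 1 μM top, in duplicate. Smad1 Ser463/Ser465 phosphorylation was read by AlphaLISA.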

| IC50 [1] | IC50 (human ALK2 R206H) | SMILES |
| --- | --- | --- |
| < 10 nM | < 100 nM | CC(C)NC(=O)N1CCN(c2ccnn3cc(-c4cnn([C@@H]5CCCNC5)c4)cc23)CC1 [Compound 469] |
| < 10 nM | < 100 nM | CC(C)N1CC(c2ccc(-c3cc4c(N5CCN(C(=O)C6CC6)CC5)ccnn4c3)cc2)C1 [Compound 150, cyclopropyl(4-(6-(4-(1-isopropylazetidin-3-yl)phenyl)pyrrolo[1,2-b]pyridazin-4-yl)piperazin-1-yl)methanone] |
| < 10 nM | < 100 nM | CO[C@@]1(c2ccc(-c3cc4c(N5CCN(C(=O)C6CC6)CC5)ccnn4c3)cc2F)CCCN(C(C)C)C1 [Compound 684] |
| < 10 nM | < 100 nM | CC(C)N1CC2(CN(c3ccc(-c4cc5c(N6CCN(C(=O)[C@H]7CC[C@H](O)CC7)CC6)ccnn5c4)cc3)C2)C1 [Compound 441] |
| < 10 nM | < 100 nM | CCOC(=O)N1CCN(c2ccnn3cc(-c4ccc([C@@H]5CCCN(C(C)C)C5)cc4)cc23)CC1 [Compound 287] |
| < 10 nM | 100 to 500 nM | CC(C)N1CC2(CN(c3ccc(-c4cc5c(N6CCN(C(=O)[C@H]7C[C@@H]7F)CC6)ccnn5c4)cc3)C2)C1 [Compound 623] |
| < 10 nM | < 100 nM | [2H]C([2H])([2H])C([2H])([2H])OC(=O)N1CCN(c2ccnn3cc(-c4ccc([C@]5(OCC)CCCNC5)cn4)cc23)CC1 [Compound 794] |
| < 10 nM | < 100 nM | COC1(c2ccc(-c3cc4c(N5CCN(C(=O)OC6COC6)CC5)ccnn4c3)cc2)CCOCC1 [Compound 799] |
| < 10 nM | < 100 nM | CCN1CCCC(Oc2ccc(-c3cc4c(N5CCN(C(=O)C6CC6)CC5)ccnn4c3)cc2)C1 (stereo not drawn) [Compound 269] |
| < 10 nM | < 100 nM | CCN[C@@H](CO)c1ccc(-c2cc3c(N4CCN(C(=O)OC5COC5)CC4)ccnn3c2)cc1 [Compound 780] |
| < 10 nM | < 100 nM | N#C[C@H]1C[C@@H]1C(=O)N1CCN(c2ccnn3cc(-c4ccc([C@]5(F)CCCNC5)cc4)cc23)CC1 [Compound 511] |
| < 10 nM | < 100 nM | CC(C)N1CCC(F)(c2ccc(-c3cc4c(N5CCN(C(=O)C6CC6)CC5)ccnn4c3)cc2)CC1 [Compound 583] |
| < 10 nM | < 100 nM | CC(C)N1CC[C@H](c2ccc(-c3cc4c(N5CCN(C(=O)[C@H]6C[C@H](O)C6)CC5)ccnn4c3)cc2)C1 [Compound 320] |
| < 10 nM | < 100 nM | CCNC(=O)N1CCN(c2ccnn3cc(-c4ccc(C5CN(C(C)C)CCN5C)cc4)cc23)CC1 (stereo not drawn) [Compound 587] |
| < 10 nM | < 100 nM | COC1(c2ccc(-c3cc4c(N5CCN(C(=O)OC6COC6)CC5)ccnn4c3)nc2)CCN(C(C)CF)CC1 (stereo not drawn) [Compound 863] |
| < 10 nM | < 100 nM | CCOC(=O)N1CCN(c2ccnn3cc(-c4ccc(N5CCNCC5)cc4)cc23)CC1 [Compound 143] |
| < 10 nM | < 100 nM | CCN1CCC(c2ccc(-c3cc4c(N5CCN(C(=O)C6CCC6)CC5)ccnn4c3)cc2)CC1 [Compound 250] |
| 10 to 50 nM | 100 to 500 nM | O=C(C1CC1)N1CCN(c2ccnn3cc(-c4ccc(N5CC6(CCNC6)C5)cc4)cc23)CC1 [Compound 197] |
| < 10 nM | < 100 nM | CC(C)N1CCC(c2ccc(-c3cc4c(N5CCN(C(=O)OC6COC6)CC5)ccnn4c3)c(F)c2)CC1 [Compound 694] |
| < 10 nM | < 100 nM | CCOC(=O)N1CCN(c2ccnn3cc(-c4ccc([C@H]5CCN(C(C)C)C5)cc4)cc23)CC1 [Compound 231] |
| < 10 nM | < 100 nM | CC(C)N1CCCCC1c1ccc(-c2cc3c(N4CCN(C(=O)C5CC5)CC4)ccnn3c2)cc1 (stereo not drawn) [Compound 257] |
| < 10 nM | 100 to 500 nM | CC(C)N1CCC(c2ccc(-c3cc4c(N5CCN(C(=O)NCCO)CC5)ccnn4c3)cc2)CC1 [Compound 353] |

| IC50 [1] | IC50 (human ALK2 R206H) | SMILES |
| --- | --- | --- |
| < 10 nM | 100 to 500 nM | CCN1CCN(c2ccc(-c3cc4c(N5CCN(C(=O)C6CC6)CC5)ccnn4c3)c(OC(F)F)c2)CC1 [Compound 427] |
| < 10 nM | < 100 nM | CC(C)N1CCN[C@@](C)(c2ccc(-c3cc4c(N5CCN(C(=O)C6CC6)CC5)ccnn4c3)nc2)C1 [Compound 576] |
| < 10 nM | < 100 nM | CCOC(=O)N1CCN(c2ccnn3cc(-c4ccc(C5(OC)CCNCC5)cc4)cc23)CC1 [Compound 498] |
| < 10 nM | 100 to 500 nM | O=C(C1CC1)N1CCN(c2ccnn3cc(-c4ccc(OC5CCNCC5)cc4)cc23)CC1 [Compound 160] |
| < 10 nM | 100 to 500 nM | CCN1CCN(c2ccc(-c3cc4c(N5CCN(C(=O)C6CC(F)(F)C6)CC5)ccnn4c3)cc2)CC1 [Compound 402] |
| < 10 nM | < 100 nM | CC(C)N1CCC(c2ccc(-c3cc4c(N5CCN(C(=O)OCC(F)F)CC5)ccnn4c3)cc2)CC1 [Compound 652] |
| < 10 nM | < 100 nM | CC(C)NC(=O)N1CCN(c2ccnn3cc(-c4ccc([C@@H]5CCN(C(C)C)C5)cc4)cc23)CC1 [Compound 531] |
| < 10 nM | < 100 nM | CCOC(=O)N1CCN(c2ccnn3cc(-c4ccc([C@H]5CCCN(C(C)C)C5)cc4)cc23)CC1 [Compound 288] |
| < 10 nM | < 100 nM | CC(C)N1CCC(c2ccc(-c3cc4c(N5CCN(C(=O)C6CC6)CC5)ccnn4c3)cc2F)CC1 [Compound 345] |
| < 10 nM | < 100 nM | O=C(C1CC1)N1CCN(c2ccnn3cc(-c4ccc([C@]5(F)CCCNC5)cc4)cc23)CC1 [Compound 179] |
| < 10 nM | < 100 nM | CC(C)N1CC[C@@H](c2ccc(-c3cc4c(N5CCN(C(=O)C6CC6)CC5)ccnn4c3)nc2)C1 [Compound 485] |
| < 10 nM | < 100 nM | N#C[C@H]1CC[C@H](C(=O)N2CCN(c3ccnn4cc(-c5ccc(N6CCNCC6)cc5)cc34)CC2)CC1 [Compound 371] |
| < 10 nM | < 100 nM | O=C([C@H]1C[C@H]1F)N1CCN(c2ccnn3cc(-c4ccc(N5CCNCC5)cc4)cc23)CC1 [Compound 185] |
| < 10 nM | < 100 nM | O=C(C1CC1)N1CCN(c2ccnn3cc(-c4ccc(C5(C(F)(F)F)CCNCC5)cc4)cc23)CC1 [Compound 808] |
| < 10 nM | 100 to 500 nM | CCN1CCN(c2ccc(-c3cc4c(N5CCN(C(=O)C6CC6)CC5)ccnn4c3)cc2)CC1(C)C [Compound 316] |
| < 10 nM | 100 to 500 nM | CC(C)N1CCC[C@@H](c2ccc(-c3cc4c(N5CCN(C(=O)O[C@@H]6CCOC6)CC5)ccnn4c3)cc2)C1 [Compound 825] |
| < 10 nM | < 100 nM | CC(C)N1C[C@@H](c2ccc(-c3cc4c(N5CCN(C(=O)C6CC6)CC5)ccnn4c3)cc2)C[C@H]1C [Compound 505] |
| < 10 nM | 100 to 500 nM | CC(C)N1CC[C@H](c2ccc(-c3cc4c(N5CCN(C(=O)C6CC6)[C@H](C)C5)ccnn4c3)cc2)C1 [Compound 253] |
| < 10 nM | < 100 nM | N#C[C@H]1C[C@@H]1C(=O)N1CCN(c2ccnn3cc(-c4ccc(C5(F)CCCNC5)cc4)cc23)CC1 (stereo partly drawn) [Compound 258] |
| < 10 nM | < 100 nM | CO[C@]1(c2ccc(-c3cc4c(N5CCN(C(=O)NC(C)C)CC5)ccnn4c3)nc2)CCCNC1 [Compound 784] |
| < 10 nM | < 100 nM | CCNC(=O)N1CCN(c2ccnn3cc(-c4nc5c(s4)CN(C(C)C)CC5)cc23)CC1 [Compound 193] |
| < 10 nM | < 100 nM | CO[C@@]1(c2ccc(-c3cc4c(N5CCN(C(=O)OC6COC6)CC5)ccnn4c3)nc2)CCCN(C(C)C)C1 [Compound 718] |

| SMILES | IC50 [1] | IC50 (human ALK2 R206H) |
| --- | --- | --- |
| COC[C@H](C)N1CCC(OC)(c2ccc(-c3cc4c(N5CCN(C(=O)[C@H]6C[C@H](C#N)C6)CC5)ccnn4c3)cc2)CC1 [Compound 745] | < 10 nM | < 100 nM |
| CCNC(=O)N1CCN(c2ccnn3cc(-c4ccc(C5(OC)CCN(C(C)C)CC5)cc4)cc23)CC1 [Compound 399] | < 10 nM | < 100 nM |
| COC1(c2ccc(-c3cc4c(N5CCN(C(=O)NC(C)C)CC5)ccnn4c3)cc2)CCN([C@H](C)COC(F)F)CC1 [Compound 893] | < 10 nM | < 100 nM |
| CCOC1(c2ccc(-c3cc4c(N5CCN(C(=O)[C@H]6C[C@H](C#N)C6)CC5)ccnn4c3)nc2)CCN(C2COC2)CC1 [Compound 890] | < 10 nM | < 100 nM |
| CCOC(=O)N1CCN(c2ccnn3cc(-c4ccc(C5(OC)CCN(C(C)C)CC5)cc4)cc23)CC1 [Compound 643] | < 10 nM | < 100 nM |
| COC1(c2ccc(-c3cc4c(N5CCN(C(=O)C6CC6)CC5)ccnn4c3)nc2)CCN(C(C)C)CC1 [Compound 624] | < 10 nM | < 100 nM |
| COC1(c2ccc(-c3cc4c(N5CCN(C(=O)[C@H]6C[C@H](C#N)C6)CC5)ccnn4c3)cc2)CCN([C@H](C)CO)CC1 [Compound 739] | < 10 nM | < 100 nM |

Reference: US10233186B2, “Inhibitors of activin receptor-like kinase” (BLUEPRINT MEDICINES CORPORATION, priority 2016, dated 2019)
